Structures can show the parent of a compound that is named as a salt.
Tested on: jejunum
Assay: Transcriptional profiling on Affymetrix GeneChips, single dose, naïve mice: jejunum
Type: in vivo, C57BL/6 mice
Conditions: for Number of differentially expressed genes identified: Jenjunum: Naïve, Single Dose
Method: Treated mice were sacrificed at 2, 7, or 12 hours. Tissues (liver, spleen, kidney, jejunum, cortex, hippocampus, striatum and whole blood) were collected and analyzed by transcriptional profiling on mouse Affymetrix GeneChips.
Tissues (liver, spleen, kidney, jejunum, cortex, hippocampus, striatum and whole blood) were collected and analyzed by transcriptional profiling on mouse Affymetrix GeneChips.
Animals were exposed to CO2 and whole blood collected via cardiac puncture. Two 100 μl aliquots of whole blood were collected in 1.5 mL microcentrifuge tubes and snap frozen in liquid nitrogen. Peripheral (liver, spleen, kidney and jejunum) and CNS brain (cerebellum, hippocampus, striatum and cortex) tissues were harvested and snap frozen in liquid nitrogen, with special care taken to collect tissues of similar size and from the same location. All samples were stored at −80° C. until RNA extraction was conducted.
For RNA preparation, frozen tissues were placed in 2 mL RNAse-free 96-well blocks with 1.5 mL QIAzol Lysis Reagent (QIAgen) and a 3.2 mm stainless steel bead (BioSpec Products, Bartlesville, Okla.). Tissues were disrupted for four cycles of 45 seconds in a Mini-Beadbeater (Biospec Products). RNA was extracted in chloroform and the aqueous phase was mixed with an equal volume of 70% ethanol. Extracted RNA was applied to RNeasy 96 plates and purified by the spin method according to the manufacturer's protocol (RNeasy 96 Universal Tissue Protocol, QIAgen, Hilden Germany).
Automated sample amplifications and biotin labelings were carried out using the NuGEN Ovation RNA Amplification system V2 (Cat #3100), Ovation WB reagent (Cat #1300) and Encore Biotin module (Cat #4200) (NuGEN Technologies, Inc, San Carlos, Calif.) according to manufacturer's recommendations using an Arrayplex automated liquid handler (Beckman Coulter, Indianapolis, Ind.). Two micrograms of biotin labeled sscDNA probe were hybridized to Affymetrix GeneChip Affymetrix HT_MG-430_PM plate arrays with modified conditions as described in Allaire et al. Washing and staining of the hybridized arrays were completed as described in the GeneChip Expression analysis technical manual for HT plate arrays using the Genechip® Array Station (Affymetrix, Santa Clara, Calif.) with modifications as described in Allaire et al. The processed GeneChip® plate arrays were scanned using GeneTitan scanner (Affymetrix, Santa Clara, Calif.).
Affymetrix scans were subject to quality control (QC) measures. These tests included a visual inspection of the distribution of raw signal intensities and an assessment of RNA degradation, relative log expression (RLE), and normalized unsealed standard error (NUSE). All sample scans that passed these QC metrics were included in the analysis.
All CEL files were subjected to GC-content-based Robust Multi-array Average (GCRMA) normalization (version 2.20.0) (Irizarry R A, et al. Nucleic Acids Res 2003; 31:e15; Li C, et al. Genome Biol 2001; 2:[…]0032). Expression levels were log (base 2) transformed.
All calculations and analyses were carried out using R (version 2.11.1) and Bioconductor computational tools (Gentleman R. Springer Science+Business Media 2005).

With COC(=O)/C=C/C(=O)OC [DMF, dimethyl fumarate] the “Pir (1429001_PM_at) differential expression” value (Jejunum, 12 hr) was 3.79, the “Setd4 (1435405_PM_at) differential expression” value (Jejunum, 12 hr) was 1.66 and the “Slc5a4b (1422757_PM_at) differential expression” value (Jejunum, 12 hr) was 2.21. For the same compound, the “Ugt2b5 (1419622_PM_at) differential expression” value (Jejunum, 12 hr) was 4.92, the “Ugt2b36 (1455595_PM_at) differential expression” value (Jejunum, 12 hr) was 2.94 and the “Number of differentially expressed genes identified: Jenjunum” value (shortened to “Number of differentially”) (100 mpk DMF-vs-100 mpk MMF, 2 h after last dosing) was 1. For the same compound, the “Number of differentially” value (100 mpk DMF-vs-100 mpk MMF, 7 h after last dosing) was 2, the “Number of differentially” value (100 mpk DMF-vs-100 mpk MMF, 12 h after last dosing) was 0 and the “Number of differentially” value (100 mpk, vs Vehicle, 2 h after last dosing) was 62. For the same compound, the “Number of differentially” value (100 mpk, vs Vehicle, 7 h after last dosing) was 44, the “Number of differentially” value (100 mpk, vs Vehicle, 12 h after last dosing) was 37 and the “FC 9130221J17Rik (1443159_PM_at)” value (jejunum, 100DMF-vs-Veh, 2 h) was 2.30. For the same compound, the “FC Acss2 (1446542_PM_at)” value (jejunum, 100DMF-vs-Veh, 2 h) was 1.68, the “FC Akr1b8 (1448894_PM_at)” value (jejunum, 100DMF-vs-Veh, 2 h) was 7.35 and the “FC Akr1c13 (1418672_PM_at)” value (jejunum, 100DMF-vs-Veh, 2 h) was 1.62. For the same compound, the “FC Akr1c19 (1455454_PM_at)” value (jejunum, 100DMF-vs-Veh, 2 h) was 2.45, the “FC Areg (1421134_PM_at)” value (jejunum, 100DMF-vs-Veh, 2 h) was 3.58 and the “FC Cbr1 (1460196_PM_at)” value (jejunum, 100DMF-vs-Veh, 2 h) was 1.55. The “FC Cbr3 (1427912_PM_at)” value (jejunum, 100DMF-vs-Veh, 2 h) was 54.72, the “FC Ces1e (1419510_PM_at)” value (jejunum, 100DMF-vs-Veh, 2 h) was 1.85 and the “FC Ces1f (1424266_PM_s_at)” value (jejunum, 100DMF-vs-Veh, 2 h) was 2.48. For the same compound, the “FC Ces1g (1449486_PM_at)” value (jejunum, 100DMF-vs-Veh, 2 h) was 4.06, the “FC Dnase2a (1430135_PM_at)” value (jejunum, 100DMF-vs-Veh, 2 h) was 1.77 and the “FC Dppa5a (1416552_PM_at)” value (jejunum, 100DMF-vs-Veh, 2 h) was 3.07. For the same compound, the “FC Dusp4 1428834_PM_at” value (jejunum, 100DMF-vs-Veh, 2 h) was 1.51, the “FC Entpd5 (1433763_PM_at)” value (jejunum, 100DMF-vs-Veh, 2 h) was 1.53 and the “FC Ereg (1419431_PM_at)” value (jejunum, 100DMF-vs-Veh, 2 h) was 2.50. For the same compound, the “FC Ero1l (1419030_PM_at)” value (jejunum, 100DMF-vs-Veh, 2 h) was 1.92, the “FC Ero1l (1449324_PM_at)” value (jejunum, 100DMF-vs-Veh, 2 h) was 1.50 and the “FC Esd (1441604_PM_at)” value (jejunum, 100DMF-vs-Veh, 2 h) was 1.71. For the same compound, the “FC Fam13a (1456611_PM_at)” value (jejunum, 100DMF-vs-Veh, 2 h) was 1.54, the “FC Gclc (1424296_PM_at)” value (jejunum, 100DMF-vs-Veh, 2 h) was 4.25 and the “FC Gclc (1455959_PM_s_at)” value (jejunum, 100DMF-vs-Veh, 2 h) was 3.13. For the same compound, the “FC Gsr (1421816_PM_at)” value (jejunum, 100DMF-vs-Veh, 2 h) was 2.23, the “FC Gss (1441931_PM_x_at)” value (jejunum, 100DMF-vs-Veh, 2 h) was 1.95 and the “FC Gss (1448273_PM_at)” value (jejunum, 100DMF-vs-Veh, 2 h) was 1.67. For the same compound, the “FC Gsta2 (1421040_PM_a_at)” value (jejunum, 100DMF-vs-Veh, 2 h) was 3.82, the “FC Gsta3 (1423436_PM_at)” value (jejunum, 100DMF-vs-Veh, 2 h) was 3.23 and the “FC Gsta3 (1423437_PM_at)” value (jejunum, 100DMF-vs-Veh, 2 h) was 4.03. For the same compound, the “FC Gstm1 (1416416_PM_x_at)” value (jejunum, 100DMF-vs-Veh, 2 h) was 2.30, the “FC Gstm1 (1425627_PM_x_at)” value (jejunum, 100DMF-vs-Veh, 2 h) was 2.57 and the “FC Gstm1 (1448330_PM_at)” value (jejunum, 100DMF-vs-Veh, 2 h) was 2.47. For the same compound, the “FC Gstm3 (1427473_PM_at)” value (jejunum, 100DMF-vs-Veh, 2 h) was 2.37, the “FC Gstm3 (1427474_PM_s_at)” value (jejunum, 100DMF-vs-Veh, 2 h) was 1.56 and the “FC LOC100504040 (1457279_PM_at)” value (jejunum, 100DMF-vs-Veh, 2 h) was 2.18. For the same compound, the “FC Mafg (1448916_PM_at)” value (jejunum, 100DMF-vs-Veh, 2 h) was 2.20, the “FC Nqo1 (1423627_PM_at)” value (jejunum, 100DMF-vs-Veh, 2 h) was 2.16 and the “FC Osgin1 (1424022_PM_at)” value (jejunum, 100DMF-vs-Veh, 2 h) was 2.08. The “FC Prss8 (1418320_PM_at)” value (jejunum, 100DMF-vs-Veh, 2 h) was 2.60, the “FC Ptk6 (1442923_PM_at)” value (jejunum, 100DMF-vs-Veh, 2 h) was −2.42 and the “FC Setd4 (1425239_PM_at)” value (jejunum, 100DMF-vs-Veh, 2 h) was 2.09. The “FC Setd4 (1435405_PM_at)” value (jejunum, 100DMF-vs-Veh, 2 h) was 1.91, the “FC Setd4 (1460373_PM_a_at)” value (jejunum, 100DMF-vs-Veh, 2 h) was 1.91 and the “FC Slc35e3 (1428805_PM_at)” value (jejunum, 100DMF-vs-Veh, 2 h) was 1.53. The “FC Slc40a1 (1417061_PM_at)” value (jejunum, 100DMF-vs-Veh, 2 h) was 2.33, the “FC Srr (1453421_PM_at)” value (jejunum, 100DMF-vs-Veh, 2 h) was 1.99 and the “FC Srxn1 (1425351_PM_at)” value (jejunum, 100DMF-vs-Veh, 2 h) was 1.71. The “FC Tifa (1426501_PM_a_at)” value (jejunum, 100DMF-vs-Veh, 2 h) was −2.43.

Reference: patent US20160115540A1, “PRODRUGS AND DRUGS” (Biogen MA Inc., priority 2013, published 2016)
